Results on 92 compounds are retold here after PubChem BioAssay AID1322 (NMMLSC, 2008).

Activity calls are given as the source filed them. How the calls were made is not given here.

This experiment deals with Bcl-2-like protein 1 (Homo sapiens) (UniProt Q07817). Nature of the experiment: Bcl-XL binding to Bim peptide disruption – biochemical, multiplexed, bead flow cytometry, human Bcl-XL, dose response (AID 1322). On inhibition: test concentration not given here. The following applies: Bead-based flow cytometry, MCF; for inhibition: active compounds read high. Background: Flow cytometry measures light scatter and fluorescence of single cells or particles in a stream.
Chain of Bcl-2-like protein 1 (Homo sapiens) (Q07817 whole entry, looked up): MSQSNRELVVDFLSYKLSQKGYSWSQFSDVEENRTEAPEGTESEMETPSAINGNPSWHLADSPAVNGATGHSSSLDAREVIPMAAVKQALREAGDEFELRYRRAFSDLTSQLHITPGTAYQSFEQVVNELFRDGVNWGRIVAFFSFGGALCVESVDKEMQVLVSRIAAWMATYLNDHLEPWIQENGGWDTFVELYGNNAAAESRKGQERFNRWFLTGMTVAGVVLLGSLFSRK

In the case of `OC(CNC1CCCCC1)COCCOc1ccc(Br)cc1` (configuration not stated), the inhibition entry was “inactive”.
`O=C(C1=C(Nc2ccccc2)c2ccccc2S(=O)(=O)N1)c1ccccc1`: the inhibition entry is “inactive”.
Take `O=C(COC(=O)c1ccccn1)NC1CCCCC1`: the inhibition entry is “inactive”.
Same read-out and setting: under `COC(=O)c1sc2nc[nH]c(=O)c2c1C` stands “inactive”; under `CCCc1nnc2n1N=C(c1ccc(-c3cc(Cl)ccc3Cl)o1)CS2`, “inactive”; under `CCn1cc(C=C2C(=O)c3ccccc3C2=O)c2ccccc21`, “inactive”.
`CCc1nnc(NS(=O)(=O)c2ccc(N=CC3=C(O)CC(C)(C)CC3=O)cc2)s1`: the inhibition result is “inactive”.
With `COc1ccc(-c2noc(COc3ccc4c(c3)OCO4)n2)cc1OC`, the inhibition result is “inactive”.
As for `Cc1ccc2c(c1)C1CN(C)CCC1N2C(=O)Nc1cccc(Cl)c1` (configuration not stated), the inhibition entry is “inactive”.
For the compound `CN(C)CCNC(=O)C(=O)C1C(=O)Nc2ccccc21` (configuration not stated), the result was inactive.
Still for that read-out and setting: under `CN(Cc1cccs1)C(=O)CCc1c[nH]c2ccccc12` stands “inactive”.
With `O=C1NCCN1C(=O)N(c1ccccc1)c1ccccc1`, the inhibition result is “inactive”.
Take `CC(C)(C)C1CCC(=NNC(=O)c2cc3c(s2)CCCC3)CC1` (configuration not stated): the inhibition entry was “inactive”.
As for `Fc1ccc(/C=C2\CCCC3=C2NC(=S)NC3c2ccc(F)cc2)cc1` (configuration not stated), the inhibition result was “inactive”.
Regarding `O=C1c2ccccc2C(=O)c2cc(S(=O)(=O)Nc3ccccc3)ccc21`, the outcome was inactive.
As for `C1=CC2c3ccccc3NC(c3ccncc3)C2C1` (configuration not stated), the inhibition result is “inactive”.
Still for that read-out and setting: under `COP(=O)(CC(=O)O)c1ccccc1` (configuration not stated) stands “inactive”.
As to `O=C(N/N=C/c1cccnc1)c1cccc(S(=O)(=O)N2CCCC2)c1`, the outcome was inactive.
As to `Cc1ccc(Nc2nc(-c3c(C)nc4ncccn34)cs2)cc1`, the inhibition entry was “inactive”.
As to `CCOC(=O)C1=C(CC)Nc2ccccc2N=C1NC(=O)c1ccc(S(=O)(=O)N2CCOCC2)cc1`, the result was inactive.
`CC(/C=C/C(=O)c1ccc(C)cc1)=C\c1ccccc1`: the inhibition entry was “inactive”.
The same measure, in the same setting: under `CC[n+]1c(/C=C/C=C/N(C(C)=O)c2ccccc2)sc2ccccc21` stands “inactive”.
With `CNc1ccc(Br)cc(C(=O)/C=C/c2cc(OC)ccc2OC)c1=O`, the inhibition result is “inactive”.
On to `COc1ccccc1-n1c(SCC(=O)N2CCc3ccccc32)nc2c(c1=O)SCC2`, for which the inhibition entry is “inactive”.
Same read-out and setting: in the case of `CCC(CC)C(=O)Nc1cccc(SC)c1` it was “inactive”; in that of `Cc1ccc(-c2cc(-c3ccc4c(c3)OCO4)c(C#N)c(N)n2)o1`, “inactive”.
On the same count and under the same terms, under `Cn1c(=O)c(C(=O)COC(=O)c2cc(-c3ccco3)nc3ccccc23)c(N)n(CC2CC2)c1=O` stands “inactive”.
Same read-out and setting: in the case of `COc1ccc2c3c(cccc13)N(C)N=C2C` it was “inactive”.
Take `COc1ccc2cc(CN(CCc3ccccc3)Cc3nnnn3CC3CCCO3)c(=O)[nH]c2c1` (configuration not stated): the inhibition entry was “inactive”.
In the case of `Cc1noc(C)c1COc1ccc(C(=O)Nc2cccnc2)cc1`, the inhibition entry was “inactive”.
Still for that read-out and setting: in the case of `COc1c(F)c(F)c(C(=O)Nc2ccccc2N2CCN(C(=O)C(C)C)CC2)c(F)c1F` it was “inactive”.
Same read-out and setting: under `COc1ccc2nc(C)cc(SCC(=O)N/N=C/c3ccc(O)cc3O)c2c1` stands “inactive”; under `Cc1nn(-c2ccc(Cl)cc2)c(Cl)c1/C=C(\C#N)C(N)=O`, “inactive”; under `Cc1ccc(C)c(/C=C/C(=O)c2ccccc(=O)c2O)c1`, “inactive”.
`CCOC(=O)CSC1=NC(=O)/C(=C/c2ccc(OC)cc2)S1`: the inhibition entry is “inactive”.
Same read-out and setting: in the case of `O=C(Nc1ccccc1N1CCOCC1)c1cccs1` it was “inactive”.
For `Cc1cc(NC(=O)CCCC(=O)N(CC(=O)NC2CCCCC2)c2ccccc2)no1`, the inhibition entry is “inactive”.
The same measure, in the same setting: in the case of `COc1cc(NC(=O)c2ccc3c(c2)OCO3)ccc1NC(=O)c1ccco1` it was “inactive”.
Consider `Cc1[nH]nc(SCC(=O)NCc2ccc(F)cc2)c1[N+](=O)[O-]`, for which the inhibition entry is “inactive”.
The same measure, in the same setting: under `Cc1cc(N2CCN(C)CC2)nc2ccc(NC(=S)N3CCN(c4ccc(F)cc4)CC3)cc12` stands “inactive”.
On the same count and under the same terms, under `Cc1cccc(N2CCN(C(=S)Nc3ccc4nc(N5CCN(C)CC5)cc(C)c4c3)CC2)c1C` stands “inactive”; under `C=CCSc1nc(N)c2c(C)c(C)sc2n1`, “inactive”.
As for `O=C(NNC(=O)C12CC3CC(CC(C3)C1)C2)c1ccco1`, the outcome was inactive.
For the compound `Cc1nnc(Sc2cc(NCCO)c([N+](=O)[O-])c3nonc23)s1`, the inhibition entry is “inactive”.
Still for that read-out and setting: in the case of `CCOc1cc(CNc2ccc(N(C)C)cc2)cc(Br)c1OCC(=O)NC(C)(C)C` it was “inactive”.
With `CCN1CCN(c2ccc(NC(=O)c3ccc4c(c3)[nH]c(=O)n4Cc3ccc(OC)cc3)cc2)CC1`, the inhibition entry was “inactive”.
Consider `CCC(=O)NC(c1ccc(C)cc1)c1cc([N+](=O)[O-])c2cccnc2c1O` (configuration not stated), for which the inhibition result is “inactive”.
Same read-out and setting: in the case of `COc1ccccc1Cn1nnc2c(=O)[nH]c(C3CCN(C(=O)c4ccc(C)cc4)CC3)nc21` it was “inactive”; in that of `O=C(Nc1ccccc1)c1ccc2nc(-c3ccco3)c(-c3ccco3)nc2c1`, “inactive”.
With `COc1cccc(/C=N/Nc2nn3cnnc3c3ccccc23)c1O`, the EC50 result was “inactive”.
With `COC(=O)c1ccc(/C=N/NC(=O)CC(=O)NCc2cccnc2)cc1`, the outcome was inactive.
Take `Cc1ccc(-c2n[nH]c(=S)n2-c2ccccc2)cc1`: the inhibition result was “inactive”.
For the compound `CC(C)c1ccc(C2CC(c3ccc(Br)cc3)=NN2C(N)=S)cc1` (configuration not stated), the outcome was inactive.
Take `C(=C\c1ccccc1)/CSc1nnc(-c2ccccn2)n1Cc1ccco1`: the inhibition entry is “inactive”.
Take `Cc1ccc(Nc2nc(C)cs2)cc1`: the result was inactive.
For `c1coc(C2=Nc3cccc4cccc(c34)N2)c1`, the inhibition entry was “inactive”.
As for `O=C1Nc2ccc([N+](=O)[O-])cc2OC1CCN1CCN(Cc2ccc3c(c2)OCO3)CC1` (configuration not stated), the outcome was inactive.
On to `CCCn1c(SCC(=O)Nc2ccccc2-c2ccccc2)nnc1-c1ccoc1C`, for which the inhibition entry is “inactive”.
On the same count and under the same terms, under `CC(C)(C)C(=O)NC(NC(=S)Nc1ccc(S(N)(=O)=O)cc1)C(Cl)(Cl)Cl` (configuration not stated) stands “inactive”; under `Cc1ccc(-c2cc(-c3ccccc3Cl)c(C#N)c(N)n2)o1`, “inactive”; under `COc1cccc(-n2nnnc2SCC(=O)Nc2cccc(NC(C)=O)c2)c1`, “inactive”.
As to `Clc1nssc1=Nc1ccc(Br)cc1`, the outcome was inactive.
As for `CC1Cc2ccccc2N1C(=O)CSc1nnnn1-c1ccc2c(c1)OCCO2` (configuration not stated), the inhibition entry was “inactive”.
Consider `COc1ccccc1-n1c(-c2ccc(Cl)cc2)c[nH]c1=S`, for which the inhibition result was “inactive”.
Regarding `O=C(Nc1cccc(-c2ccc3nncn3n2)c1)c1ccco1`, the inhibition result was “inactive”.
Still for that read-out and setting: in the case of `COc1ccc(NC(=O)/C(Cl)=C(/Cl)S(=O)Cc2ccccc2)cn1` (configuration not stated) it was “inactive”; in that of `Cc1ccc(-c2cc(-c3ccc(Cl)cc3)c(C#N)c(N)n2)o1`, “inactive”; in that of `Cc1cccc(C(=O)N2CCC(c3nc(-c4ccc(S(=O)(=O)N5CCOCC5)cc4)no3)CC2)c1`, “inactive”.
As to `CN(Cc1ccccc1)c1nc2c(c(=O)[nH]c(=O)n2C)n1C`, the inhibition result was “inactive”.
Consider `CN(C)c1cccc(NC(=O)C2(C)CC2(Cl)Cl)c1` (configuration not stated), for which the outcome was inactive.
Take `CN1CCS/C1=C/C=C1/SC(=S)N(Cc2ccccc2)C1=O`: the inhibition result was “inactive”.
On to `Cc1nc(NC(=O)CC(C)C)sc1-c1csc(Nc2ccc(Cl)cc2)n1`, for which the inhibition entry was “inactive”.
Still for that read-out and setting: in the case of `Cc1cc2nn(-c3cccc4ccccc34)nc2cc1N` it was “inactive”.
The same measure, in the same setting: under `O=[N+]([O-])c1cccc(S(=O)(=O)NCC2CCCO2)c1` (configuration not stated) stands “inactive”; under `COc1cc(/C=C2/NC(=O)N(Cc3ccccc3F)C2=O)cc(OC)c1O`, “inactive”; under `COC(=O)/C(=C/c1ccc(F)cc1)NC(C)=O`, “inactive”.
Turning to `Cc1ccc(-c2cc(C(=O)OCC(=O)N(C)C3CCS(=O)(=O)C3)c3ccccc3n2)o1` (configuration not stated), the inhibition entry was “inactive”.
In the case of `CN(C)c1ccc(Nc2nc(-c3cccnc3)cs2)cc1`, the inhibition result was “inactive”.
On to `O=C(Nc1nnc(C2CC2)s1)C1Cc2ccccc2CN1S(=O)(=O)c1ccccc1F` (configuration not stated), for which the inhibition entry is “inactive”.
As to `Cc1cccn2c(=O)c3cc(C(N)=S)c(=N)n(CCCN4CCOCC4)c3nc12`, the inhibition entry is “inactive”.
On the same count and under the same terms, in the case of `CCNCc1cc(Br)c(OCC(=O)Nc2ccccc2)c(OC)c1` it was “inactive”; in that of `CCc1nn2cc(C(=O)c3cc(C)ccc3O)cnc2c1-c1ccc(F)cc1`, “inactive”; in that of `O=C(C[n+]1ccc(-c2nnc3n2CCC3)cc1)c1ccc(Cl)c(Cl)c1`, “inactive”.
Still for that read-out and setting: in the case of `CCN(CC)c1ccc(-c2nn3c(-c4ccccc4OC)nnc3s2)cc1` it was “inactive”; in that of `COc1cc(OC)c([N+](=O)[O-])cc1/C=N/NC(=O)c1ccncc1`, “inactive”; in that of `Cc1cccc(OCC(=O)NCC(=O)N/N=C/c2cc(Br)ccc2OCc2ccccc2)c1`, “inactive”.
On the same count and under the same terms, under `Cc1cc(-c2nn(-c3ccccc3)cc2/C=C2\SC(N)=NC2=O)ccc1OC(C)C` stands “inactive”.
With `Cc1cc(C)c[n+](-c2nc3ccccc3nc2C(=C=[N-])C#N)c1`, the inhibition result is “inactive”.
`C/C(=N\NC(=O)COc1ccc(C#N)cc1)c1ccccc1OC(F)F`: the inhibition entry is “inactive”.
The same measure, in the same setting: under `O=C(Nc1cccc(C(F)(F)F)c1)c1ccc2nc(-c3ccco3)c(-c3ccco3)nc2c1` stands “inactive”.
For `COc1ccc(C2CN(C)CC2C(=O)c2ccc(F)cc2)cc1Cl` (configuration not stated), the outcome was inactive.
Consider `Cc1ccc(C)c(Oc2ncnc(N)c2[N+](=O)[O-])c1`, for which the inhibition result is “inactive”.
